According to US20260234159A1, “SMALL MOLECULE TREATMENT OF FATTY LIVER DISEASE AND HCC” (SCANDIEDGE THERAPEUTICS AB, priority 2023, published 2026):
Where two headings read alike, the source gives them in different places.

Assays:
[1] = In vivo biosafety study in rats: histopathological and immunohistochemical examination; parameters: species or system Sprague Dawley male rats; settings: 30 mg/kg, seven days
Protocol: In vivo biosafety studies. Healthy Sprague Dawley male rats (12 weeks old, 250-280 g) were obtained from Atatürk University Experimental Research Center ([…] Turkey) and housed under standard environmental conditions (temperature 20° C.-25° C., humidity 50±20% and 12-hour light/dark diurnal cycle). Food and water were available ad libitum. Rats were randomly separated into one control group and two experimental groups (30 mg/kg/day BX-912 or JNK-IN-5A, n=5). […] The control group were received the same amount of vehicle solution only. After 7 days, rats were anaesthetized, and blood samples were collected from the abdominal aorta for biochemical and haematological analysis. The plasma was separated and stored at -80° C. for further analysis. Major organs such as heart, kidney, liver, muscle, adipose, intestine (duodenum, ileum, jejunum), pancreas, colon, and stomach were collected from all the animals for further analysis. Selected organs were fixed in 10% neutral buffered formalin for histopathological examination. Histopathological examination. […] Immunohistochemical examination. […] Slides were counter stained with hematoxylin.

[2] = test system: polychromatic erythrocytes; assay: Micronucleus frequencies (MNPCEs) as genotoxicity endpoint; assay type: in vivo, Sprague Dawley male rats; settings: 30 mg/kg, seven days
Protocol: In addition to sampling for biochemical and haematological analysis, one drop of blood samples was obtained from the animals for evaluating micronucleus frequencies as genotoxicity endpoint at the end of the experiments. Three different smears of each rat were prepared using pre-coded and cold slides, then the slides air-dried at room temperature, and fixed in ethanol for 10 min, and stained with Giemsa. […] The incidence of MN-PCEs was determined by scoring a total of 3000 PCE per animal and results were expressed as % MN [12].

[3] = test system: HSD fed rats; assay: In vivo efficacy study in high sucrose diet (HSD) steatosis rats; settings: HSD plus 30 mg/kg seven days
Excerpt: In vivo efficacy studies. After 1-week acclimation period, rats were randomly separated into two groups: control group (n=5) and high sucrose group (n=20). The control group was fed with a standard diet while the others consumed high sucrose diet (HSD). Sucrose was purchased from Sigma Chemical Co. (St Louis, MO, USA) and supplied at the dose of 10% in the drink water for two weeks.
After 2 weeks, five rats in the HSD group were randomly sacrificed for conformation of NAFLD model. Then, the remaining rats in the HSD group were separated into three sub-groups (n=5): HSD group, HSD plus BX-912 group and HSD plus JNK-IN-5A group. BX-912 and JNK-IN-5A were dissolved in DMSO and were orally administrated using oral gavage for one week (30 mg/kg/day). The HSD group were treated with vehicle solution only.
At the end of the experiment, rats were sacrificed after being anesthetized. Blood samples were collected from the abdominal aorta and centrifuged at 8000 rpm for 15 min at 4° C. The plasma was separated and stored at −80° C. until further analysis. Other internal organs, including the heart, adipose tissues, liver, kidney, muscle, intestine (duodenum, ileum, jejunum), pancreas, colon and stomach were immediately removed and then snap frozen in liquid nitrogen and stored at −80° C.; the liver was also fixed in 10% formaldehyde for histopathological examination.
Histopathological examination. The liver tissues were fixed in 10% buffered formaldehyde solution. After fixation, the tissues were passed through graded alcohol and xylene series and embedded in paraffin blocks. 5 micrometer thick sections were taken serially from the paraffin blocks. Histopathological changes were evaluated by performing hematoxylin eosin staining on the sections taken. Sections were evaluated according to histopathological findings as none (−), mild (+), moderate (++) and severe (+++).
Immunohistochemical examination. After deparaffinization, the slides were immersed in antigen retrieval solution (pH 6.0) and heated in microwave for 15 min to unmask the antigens. The sections were then dipped in 3% H2O2 for 10 min to block endogenous peroxidase activity. Protein block was dropped onto the sections, washed with PBS for 10 min. Primary antibodies (8-OH-dG, Cat No: sc-66036, Diluent Ratio: 1/100, Santa Cruz) were prepared and applied according to the usage conditions. Expose mouse and rabbit specific HRP/DAB detection IHC kit were used as follows: sections were incubated with goat anti-mouse antibody, then with streptavidin peroxidase, and finally with 3,3′ diamino benzidine+chromogen. Slides were counter stained with hematoxylin. Immunoreactivity in the sections were graded as none (−), mild (+), moderate (++) and severe (+++).

[4] = test system: HepG2 cells; assay: FACs analysis with PI staining (cell cycle); assay type: cell-based, human; settings: PI FACs, 10 μM, 2 days
Protocol: 400,000 HepG2 cells were seeded in a 6-well plated and treated with 10 μM of the compounds for 2 days. Cells were fixed with 70% ethanol and stained with 50 μg/ml PI. Prepared cells were analysed using BD FACS Canto II Flow Cytometry system at PE-A channel 10,000 cells per group. The data was histogram plotted with BD FACSDiva 9.0.

[5] = test system: HepG2 cells; assay: Invasion assay (transwell); assay type: cell-based, human; settings: Homo sapiens, HepG2, 24 hr, read-out: invasiveness reduced by
Protocol: The effects of the treatment with the compounds on the invasion ability of HepG2 and Huh7 cells were determined by 8 μm pores transwell chamber (Corning™ 3464, USA).
(§1) Transwell membrane was coated with 100 μl collagen (Sigma C3867, USA) diluted with PBS to a concentration of 1 mg/ml. After overnight incubation at 4° C., the collagen solution was discarded and the membrane was washed with PBS. 100,000 cells in 200 μl serum free media together with the tested compounds were added into the upper well and 600 μl of 10% FBS supplemented growth media was added to the lower well as an invasive attractant in a 24-well plate. Cells were incubated at 37° C. in a CO2 incubator for one day. The cells were fixed with 3.7% formaldehyde for 30 minutes at room temperature and washed with PBS twice. The cells were stained with 1% crystal violet in PBS for 20 minutes and residual cells in inner membrane were swabbed gently with a cotton swab. Invaded cells located at the outer membrane were imaged by ZOE Fluorescent Cell Imager (Bio-Rad, USA) and counted by image. For wound healing assay, 100,000 cells per well were seeded into 24-well plates and grown until 95-100% confluent. Linear wound was created by using a 200 μl pipette tip. Image was recorded at the time point of day 0 until control group wound closure with 1 μM of compounds by ZOE Fluorescent Cell Imager (Bio-Rad, USA). Wound areas were measured using ImageJ software.

[6] = test system: HepG2 cells; assay: Mitochondrial membrane potential assay (TMRE); assay type: cell-based, human; settings: 10 μM, one day
Protocol: HepG2 cells were seeded into a 6-well plate at 400,000 cells per well. After treatment with the compounds at desired concentration and time, TMRE (ab113852, abcam), Autophagy (ab139484, abcam), ROS (ab113851, abcam), and Lipid peroxidation (ab243377, abcam) assay were performed according to manufacturer's instructions. Fluorescence images were taken using ZOE™ Fluorescent Cell Imager (Biorad) and ROI of fluorescence intensity was measured and calculated by Image J. For microplate reader florescence assay, 40,000 of HepG2 cells were seeded into a 96-well plate and triplicated. GFP (Ex480 nm, Em530 nm) and RFP (Ex549 nm, Em574 nm) were measured using a microplate reader (Hidex Sense Meta Plus).

[7] = test system: HepG2 cells; assay: Triglyceride (TAG) measurement assay, one week steatosis model; assay type: cell-based, human; settings: Homo sapiens
Protocol: (§2) HepG2 wild type cells were purchased from genome engineering company Synthego. Cells were maintained with Roswell Park Memorial Institute growth media, RPMI, 1640 (R2405, Sigma-Aldrich) and supplemented with 10% fetal bovine serum (FBS, F7524, Sigma-Aldrich), 1% penicillin-streptomycin (P/S, P4333, Sigma-Aldrich). Steatosis induction media was prepared as high glucose Dulbecco's Modified Eagle Media (DMEM, D0819, Sigma-Aldrich) with 10% FBS, 1% P/S media supplemented with 10 μg/ml insulin (I9278, Sigma-Aldrich), and 10 μM T0901317 (T2320, Sigma-Aldrich). HepG2 cells were seeded 6×10^4 cells per well for 96-well plate and 1×10^6 cells per well for 6-well plate. HepG2 cells were incubated with steatosis induce media (SM) for one week by 3 day+2 day+2 day with total three times media exchange.
HepG2 cells were seeded at 6×10^4 cells per well into 96 well plate and induced steatosis for one week with 10 μM of target drugs. After steatosis induction, cells were washed with 200 μl of phosphate buffered saline (PBS) and triglyceride contents was measured by Triglyceride Assay Kit—Quantification (ab65336, Abcam) following manufacturer's instruction. Optical density (O.D) values were detected with microplate reader at 570 nm (Hidex Sense Beta Plus).
(§3) HepG2 cells were seeded at 60,000 cells per well in 96 well plate. Using steatosis induce media, the cells were treated with 10 μM of target drugs for one week. The media was changed 3 times at day 0, day 3 and day 5. TAG assay was performed using MAK266-1KT SDS Triglyceride Quantification Colorimetric kit and cell viability analysis was performed using MTT assay.

[8] = test system: JNK1/2/3; assay: Western blot, JNK1/2/3 P54 and p46 isoforms; assay type: cell-based, human; settings: 10 μM, 2 days
Protocol: HepG2 cells were seeded into a 6-well plate at 400,000 cells per well. After treatment with 10 μM of JNK-IN-5A and its derivatives for two days, lysates were harvested with CelLytic M (C2978, Sigma-Aldrich). […] SDS PAGE were performed using Mini-PROTEAN® TGX™ Precast Gels (Bio-Rad) and transferred using Trans-Blot® Turbo™ Transfer System (Bio-Rad). […] ImageQuantTMLAS 500 (29-0050-63, GE) was used to detect protein bands.

[9] = MTT cell viability after one week steatosis (ranking of target molecules); assay type: cell-based, human; settings: human, HepG2 cells (wild type); HepG2, 10 μM, one week steatosis induce media, MTT; Control 100.00
Protocol: as §2, §3

[10] = test system: HepG2 cells; assay: MTT cell viability / IC50 in growth media; assay type: cell-based, human
Protocol: (§4) The cytotoxic effects of the synthesized drugs on the HepG2 cells were tested by MTT (Thiazolyl Blue Tetrazolium Bromide) method. HepG2 cells were seeded 2×10^4 cells per well in 96-well plate in 200 μL growth media. […] After the incubation period, 5 mg/ml MTT (M2128, Sigma-Aldrich) solution in PBS (10 μL) was added to each well. After 1 hr, the MTT solution and all media were removed from the wells. 100 μl of DMSO was added and mixed to dissolve the formazan crystals. Cell viability was analysed by measuring the absorbance of the dissolved formazan in a microplate reader at a wavelength of 570 nm with microplate reader (Hidex Sense Beta Plus).
(§5) HepG2 cells were maintained and used with RPMI 1640 (R2405, Sigma-Aldrich) supplemented with 10% fetal bovine serum (F7524, Sigma-Aldrich), 1% P/S (P4333, Sigma-Aldrich). 20,000 cells per well of HepG2 cells were seeded into a 96-well plate and triplicated for MTT assay and LDH assay. Cell viability was measured by MTT assay (M6494, ThermoFisher) and cytotoxicity was measured by LDH assay kit (ab65393, abcam) by following manufacturer's instructions. Optical density (O.D) was numerated using a microplate reader (Hidex Sense Meta Plus).

[11] = MTT cell viability / IC50 in growth media; assay type: cell-based, human; settings: human, HepG2 cells; 10 μM, treatment for 2 days
Protocol: as §4, §5

[12] = test system: HepG2 cells; assay: Wound healing assay; assay type: cell-based; settings: Homo sapiens, HepG2, 96 h, day 4, untreated 100% wound closure, read-out: wound healing delayed by
Protocol: as §1

With `O=C(Nc1cccc(Nc2ncc(Br)c(NCCc3cnc[nH]3)n2)c1)N1CCCC1` [BX-912] the “histological structures of major organs” value [1] was “normal histological structures”, the “side effects on the rats” value [1] was “no side effects” and the “8-OH-dG expression in liver tissues” value ([1]; IHC) was “negative”. For the same compound, the genotoxic potential [2] was “non-genotoxic”, the “frequencies of MNPCEs compared to Ctrl animals” value ([2]; p>0.05) was “not statistically different” and the “degeneration in hepatocytes in liver tissues” value ([3]; HSD 3w severe) was “Mild”. The “degeneration in renal tubule epithelium” value ([3]; HSD 3w severe) was “mild”, the “fattening in the parenchyma cells of pancreas tissues” value ([3]; HSD 3w severe) was “mild” and the “steatosis in hepatocytes in liver tissues” value ([3]; HSD 3w severe) was “moderate”. For the same compound, the “8-OH-dG expression in hepatocytes” value ([3]; HSD 3w strong) was “significantly decreased”.

With `N#Cc1c(NC(=O)c2cccc3ccccc23)sc2c1CCN(CC(=O)Nc1ccnc(Cl)n1)C2` [PKL-B172] the “Cell population G0/G1” value [4] was 16.7, the “Cell population G2/M” value [4] was 73.2 and the “Cell population S” value [4] was 2.7. For the same compound, the inhibition at 1 µM [5] was 72.3%, the mitochondrial membrane potential [6] was “significantly decreased” and the activity at 10 µM ([7]; 168 h, HepG2, 10 μM, one week steatosis induce media, Control 100.00, read-out: TAG (%)) was 22%. The activity at 10 µM ([7]; HepG2, 168 h, ratio between TAG content and cell viability, Control 100.0, read-out: TAG/cell viability) was 40.9%, the “JNK1/2/3 p46 expression” value [8] was “not significantly altered” and the viability at 1 week, 10 µM [9] was 53.7%. The IC50 ([10]; Homo sapiens, 48 h, HepG2, treatment for 2 days, 30 μM to 30 nM) was 13.3 µM, the “cell viability of HepG2 cells” value ([10]; especially in cancerous media) was “particularly low cell viability” and the viability at 2 days, 10 µM [11] was 62.7%. It also gave an inhibition at 1 µM [12] of 60.7%.
